PMC5610175, “The Kinetochore Receptor for the Cohesin Loading Complex” (Cell, 2017)
Values belong to the compound of their own block, whether it stands above or below them. Residues, ends and D or L forms follow the SMILES beside them.

Columns and labels:
[1] = system: centromeric Scc2 in ctf3Δ cells expressing DBF4-FRB and CTF19-FKBP12; test: Artificial tethering of Dbf4-FRB to Ctf19-FKBP12: centromeric Scc2 localization by ChIP-qPCR; type: cell-based, budding yeast; details: rapamycin 1 μM, 2.5 hr, nocodazole and benomyl, versus DMSO, at least four independent experiments
Procedure: (F) Scc2 localization was assessed by ChIP-qPCR in the presence or absence of DDK tethering, CTF3, and Ctf19 phosphorylation sites. Wild-type (AM21613), ctf19-9A (AM21681), ctf19-2A (AM22360), ctf3Δ (AM21614), ctf19-9A ctf3Δ (AM21617), ctf19-2A ctf3Δ (AM22672), and control (AM21486) strains, all expressing DBF4-FRB and CTF19-FKBP12, were arrested in G1 for 3 hr before release into medium containing nocodazole, benomyl, and either DMSO (no DDK tethering) or rapamycin (DDK tethering; 1 μM) for 2.5 hr. Mean values of at least four independent experiments are shown. Error bars indicate SE (^∗p < 0.05; ^∗∗p < 0.01; Student’s t test, unpaired, two-tails; ns, not significant).
To artificially tether Dbf4 to the kinetochores, Dbf4 was tagged with FRB (pFA6a-FRB-KanMX6), and CTF19, ctf19-9A and ctf19-2A were tagged with FKBP12-TRP1 (pFA6a-FKBP12-TRP1). Proteins were tagged at their C-termini by one-step cassette integrations at their original gene loci as previously described ([Haruki et al., 2008]). Yeast strains for these experiments also carried TOR1-1, which confers rapamycin resistance, and the fpr1Δ mutation. Tethering of FRB and FKBP12 fusion proteins was induced by addition of rapamycin to the medium at a final concentration of 1 μM. For control cultures, an equal volume of DMSO was added instead. […]

Scc2^1-181-Scc4 (WT) = molecular target: T1, Scc2^1-181-Scc4 (WT) (Saccharomyces cerevisiae, UniProt P40090+Q04002); test: Peptide binding to Scc2^1-181-Scc4 WT by biolayer interferometry; parameters: species or system budding yeast; details: for binding to Scc2^1–181-Scc4 in vitro (in words): Scc2^1–181-Scc4 WT
T1 construct: made in house; host or cells: bacteria (E. coli is stated only for the Ctf19 complex proteins)
T1 sequence (P40090 1-624): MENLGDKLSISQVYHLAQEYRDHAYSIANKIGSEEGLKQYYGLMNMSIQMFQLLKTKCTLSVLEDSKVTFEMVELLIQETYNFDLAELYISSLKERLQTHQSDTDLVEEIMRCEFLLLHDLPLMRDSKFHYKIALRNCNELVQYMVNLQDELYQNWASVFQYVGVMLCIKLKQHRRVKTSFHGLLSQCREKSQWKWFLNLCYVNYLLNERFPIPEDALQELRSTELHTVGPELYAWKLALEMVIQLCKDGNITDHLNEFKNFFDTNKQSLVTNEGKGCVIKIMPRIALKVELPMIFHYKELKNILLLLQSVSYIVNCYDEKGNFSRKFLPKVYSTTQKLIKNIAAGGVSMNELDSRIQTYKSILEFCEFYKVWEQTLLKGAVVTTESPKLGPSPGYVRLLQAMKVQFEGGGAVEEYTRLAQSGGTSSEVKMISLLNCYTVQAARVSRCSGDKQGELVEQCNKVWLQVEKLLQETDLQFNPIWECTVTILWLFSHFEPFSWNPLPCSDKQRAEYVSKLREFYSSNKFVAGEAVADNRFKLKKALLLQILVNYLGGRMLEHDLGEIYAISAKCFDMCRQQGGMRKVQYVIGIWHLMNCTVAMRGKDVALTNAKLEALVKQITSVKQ
T1 sequence (Q04002 1-181 partner limits assumed): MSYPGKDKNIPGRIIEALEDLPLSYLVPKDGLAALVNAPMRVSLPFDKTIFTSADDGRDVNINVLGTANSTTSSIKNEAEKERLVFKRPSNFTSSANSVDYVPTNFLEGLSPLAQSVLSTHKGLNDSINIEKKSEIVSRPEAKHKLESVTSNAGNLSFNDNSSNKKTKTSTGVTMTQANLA
Procedure: Figure S5 Synthetic Ctf19^1–11 binds Scc2^1–181-Scc4, and Binding Requires Phosphorylation of Ctf19 Residue T4 or S5, Related to Figure 6 Experiments were carried out as in Figure 6B (error bars – +/−SD for three independent experiments, obscured by data points where not visible). m3 refers to immobilized Scc2^1-181-Scc4^m3. Ctf19 peptides and Scc2^1-181-Scc4 complexes used are listed in the table along with measured dissociation constants (Kd; SE – standard error for best-fit binding curve; single site, specific binding; Phos. – phosphorylated residues). TEXT PRINTED IN THE PICTURE: Ctf19 residues 1-11; Phos. none: Kd(±SE)(μM): n.d. (Scc2^1-181-Scc4: WT) | Ctf19 residues 1-11; Phos. pT4: Kd(±SE)(μM): 1757(6000+) (Scc2^1-181-Scc4: WT) | Ctf19 residues 1-11; Phos. pS5: Kd(±SE)(μM): 122(66) (Scc2^1-181-Scc4: WT); Kd(±SE)(μM): n.d. (Scc2^1-181-Scc4: m3) | Ctf19 residues 1-6; Phos. pT4;pS5: Kd(±SE)(μM): 22.6(3.0) (Scc2^1-181-Scc4: WT)
We used biolayer interferometry (ForteBio) to quantify the interaction between Scc2^1-181–Scc4 and synthetic peptides derived from the N-terminal region of Ctf19 (Tufts University Core Facility, Boston). For all steps, we used octet buffer (40mM HEPES, pH 7.5; 200mM NaCl; 1mM DTT) and low-volume 96-well opaque black plates. […] This step was allowed to reach saturation before a final incubation in octet buffer.
To derive binding curves, we first applied a linear correction so that all association steps began at zero response units. We then performed a linear drift correction by subtracting the signal for Scc2^1-181-Scc4 incubated in buffer alone during the association step (no peptide, linear subtraction for each time point, independent control for each experiment). We then applied a loading factor to correct for the Scc2^1-181-Scc4 immobilization efficiency for each well. From these normalized association curves, we extracted maximum responses for each well by averaging the signal across the final ten seconds of the association step. We performed these operations for three independent experiments, performed with new tips and samples, for each data point. […] Data points represent mean maximum responses, and error bars show the standard deviation for the three experiments. Fits were determined using GraphPad Prism software assuming a single specific binding site.

[2] = system: analog-sensitive DDK (Cdc7-AS3/Dbf4); test: DDK activity assay: phosphate transfer to Ctf19-Mcm21 by analog-sensitive DDK; type: biochemical, S. cerevisiae; details: Ctf19-Mcm21 substrate, γ-^32[P]-ATP, one hour at 30°C, autoradiography, similar to those that inhibit kinase activity in vivo (Wan et al., 2006)
Procedure: Figure S2 Determinants of Ctf19 Phosphorylation by DDK, Related to Figure 1 (A) Products of phosphorylation reactions containing Ctf19-Mcm21, analog-sensitive DDK, γ-^32[P]-ATP, and increasing concentrations of PP1. (B) Reactions carried out as in panel A, except wild-type DDK was used as in Figure 1B. After phosphorylation, reactions were subjected to a brief cleavage reaction by incubation with trypsin (top, autoradiography). Identical cleavage reactions were carried out in the absence of DDK and ATP to identify Ctf19-Mcm21 cleavage fragments (bottom; Coomassie). A schematic of the cleavage reaction is shown below (PDB: 3ZXU). (C) Phosphorylation of mutant Ctf19-Mcm21 complexes by purified DDK. Phosphorylation reactions were carried out as in panel A except that PP1 was not included. Substrates are indicated below. […] Reactions were carried out as in (B) in the presence or absence of an equimolar amount of purified Ctf3 complex.
An S. cerevisiae strain in which Cdc7 has been tagged at its C terminus with a TAP tag (calmodulin binding peptide – TEV site – tandem Protein A tags) was grown to an optical density (A600) of 2 in 12 l of yeast extract peptone dextrose (YPD) medium. […]
For phosphorylation reactions, purified DDK was concentrated to approximately 20uM as determined by absorbance at 280nm. […] Reaction products were analyzed by SDS-PAGE and autoradiography.

Compound: CO[C@H]1C[C@@H]2CC[C@@H](C)[C@@](O)(O2)C(=O)C(=O)N2CCCC[C@H]2C(=O)O[C@H]([C@H](C)C[C@@H]2CC[C@@H](O)[C@H](OC)C2)CC(=O)[C@H](C)/C=C(\C)[C@@H](O)[C@@H](OC)C(=O)[C@H](C)C[C@H](C)/C=C/C=C/C=C/1C [rapamycin]
- effect on Ctf3 requirement for centromeric Scc2 localization (in words) [1]: bypassed the Ctf3 requirement

- Kd (Scc2^1-181-Scc4 (WT); immobilized Scc2^1-181-Scc4 WT on NiNTA tips, 40mM HEPES, pH 7.5, 200mM NaCl, 1mM DTT, three independent experiments, SE for best-fit binding curve, single site, specific binding): 22.6 µM
Compound: CSCC[C@H](N)C(=O)N[C@@H](CC(=O)O)C(=O)N[C@@H](Cc1ccccc1)C(=O)N[C@H](C(=O)N[C@@H](COP(=O)(O)O)C(=O)N[C@@H](CC(=O)O)C(=O)O)[C@@H](C)OP(=O)(O)O [Ctf19 residues 1-6; Phos. pT4;pS5] (HELM PEPTIDE1{M.D.F.[C[C@@H](OP(=O)(O)O)[C@H](N[*:1])C(=O)[*:2]].[O=C([C@H](COP(=O)(O)O)N[*:1])[*:2]].D}$$$$V2.0)

- binding to Scc2^1–181-Scc4 in vitro (in words) (Scc2^1-181-Scc4 (WT); pH 7.5, listed as unmodified Ctf19^1–11): did not interact with Scc2^1–181-Scc4
- binding to Scc2^1–181-Scc4 in vitro (in words) (Scc2^1-181-Scc4 (WT); pH 7.5, listed as unphosphorylated peptide): did not
Compound: MDFTSDTTNSH [Ctf19 residues 1-11; Phos. none, unmodified synthetic Ctf19^1–11 peptide]

Compound: CC(C)(C)n1nc(-c2cccc3ccccc23)c2c(N)ncnc21 [PP1]
- concentration at which phosphate transfer to Ctf19 was inhibited [2]: ~25 µM
